Series [1] has as its system rat liver microsomes containing cytochromes P450 and microsomal glutathione S-transferase.
Text: Alternatively, reactive metabolites may be trapped as phase II conjugates such as glutathione adducts.
Glutathione adducts formed from reactive drugs or their activated metabolites in the ultrafiltrate may be trapped and concentrated on a trapping column and then analyzed using LC-MS or LC-MS-MS for identification of the metabolites and for the differentiation of isomeric products.
The subject of series [2] is rat liver microsomal cytochromes P450. The note with it: for extent of metabolism by cytochromes P450 indicated by high throughput assays: microsomes. On the procedure:
Chlorpromazine is an antidepressant-drug that undergoes extensive hepatic metabolism. […] The area under the curve for unreacted chlorpromazine is proportional to the amount of chlorpromazine consumed during the on-line metabolism experiment.
Pentoxyresorufin (1 μg) was injected into the ultrafiltration chamber containing hepatic microsomes as described herein.
Microsomes may be prepared from any types of cells or tissues, which are obtained from any species including humans. For the examples cited, male or female Sprague-Dawley rats (180-200 g) were obtained from Sasco Inc. (Omaha, Nebr.). Microsomes were prepared from rat liver, and protein and cytochrome P450 concentrations were determined using standard procedures (1). […] This washing step may be accelerated by using a higher flow rate, but care should be taken to avoid excessive pressure and rupture of the ultrafiltration membrane.
The ultrafiltration chamber (FIG. 1B) was built in-house out of polyetheretherketone (PEEK) and contained a Teflon®-coated magnetic stirring bar and a Viton® O-ring, which formed a seal around the ultrafiltration membrane. […] Chromatography tubing and fittings were made from polyetheretherketone (PEEK, Upchurch Scientific, Oak Harbor, Wash.).
NADPH and drug substrates were purchased from Sigma Chemical Company (St. Louis, Mo. All solvents were HPLC grade. Into a mobile phase consisting of 50 mM anmmonium acetate, pH 7.4, and 0.1 mM NADPH at a flow rate of 70 μL/min, chlorpromazine (3 μg) in 50 μL buffer was injected into the ultrafiltration chamber. Protonated molecules of chlorpromazine, cofactor NADPH, and the microsomal metabolic products were recorded continuously using positive ion electrospray mass spectrometry. In another experiment, 1 μg of pentoxyresorufin was injected into the ultrafiltration chamber containing hepatic microsomes as described above. […] In some experiments, NADPH was injected simultaneously with substrate instead of being added to the mobile phase.
Typically, a wide mass range was scanned by the mass spectrometer in order to identify the major metabolites (if unknown). Once the major metabolites are known or if only the compounds injected into the first chamber need to be analyzed, selected ion monitoring mass spectrometry is used to follow the appearance of metabolites, monitor the consumption of NADPH, and/or monitor the profile of unreacted compound(s).
The transfer line between the ultrafiltration chamber and the mass spectrometer was flushed for 1 min, then mass spectra were recorded for 2 min.

The next series concerns Caco-2 cells. It is filed as in vitro ADME. The conditions noted are these: human, Caco-2, 118 µM. As for the experimental part: Bioavailability assays are generally carried out in one of two ways. In one type of assay, the chamber is loaded with cells (i.e., Caco-2 human intestinal epithelial cells) such that the volume of the cells is significant compared to the volume of the chamber (e.g., 1 million cells/mL), and a size exclusion experiment is carried out. (Hidalgo, et al. 1989). An aliquot of a drug mixture is injected through the chamber and the elution profile is recorded by the mass spectrometer detector. The mixture may contain a single drug or a mixture of drugs under investigation and two internal controls: The negative control compound (such as mannitol) is excluded from entering the cells; and the positive control compound (such as certain steroids) readily enters the cells. Compounds that are excluded from the cells are washed out of the ultrafiltration chamber faster and are detected first, while compounds that enter the cells are distributed into a larger volume within the chamber and require longer to elute. In this manner, quantitative bioavailability or absorption data may be determined. In another type of bioavailability assay, a monolayer of cells (i.e., Caco-2 cells) is grown on an ultrafiltration membrane, which is then mounted in the ultrafiltration chamber with the cells facing the interior of the chamber. […] Compounds that readily enter and pass through the cells are detected first. […]

The next series concerns cytochrome P450 isozymes. The conditions noted are these: cited from earlier work.

SMILES strings stand for the structures.

Consider `Cc1c[nH]c2ccccc12` [3-methylindole], for which the glutathione adducts detected result in series [1] was “observed”.

With `CCCCCOc1ccc2nc3ccc(=O)cc-3oc2c1` [Pentoxyresorufin], the “metabolism in control without NADPH” value in series [2] is listed as “no metabolism occurred”.

Consider `CC(=O)Oc1ccccc1C(=O)O` [aspirin], for which, in the series on Caco-2 cells, the “relative elution rates aspirin/propranolol (ratio of slopes of ln [drug] vs. elution time)” value is reported as 1.6:1.

For `CN(C)CCCN1c2ccccc2Sc2ccc(Cl)cc21` [chlorpromazine], in series [2], the “metabolites detected in high throughput metabolic screening” value (shortened to “metabolites detected”) is “observed” and the “extent of metabolism by cytochromes P450 indicated by high throughput assays” value (“extent of metabolism” below) is “extensive metabolism”. The “metabolism according to the literature” value in the series on cytochrome P450 isozymes is “metabolized extensively”.

As to `O=C1C[C@@H](c2ccc(O)cc2)Oc2cc(O)cc(O)c21` [naringenin], in series [2], the “metabolites detected” value was “no metabolites” and the “extent of metabolism” value is “not”. In the series on cytochrome P450 isozymes, the “effect on cytochrome P450 isozymes according to the literature” value is given as “inhibit the action of certain cytochrome P450 isozymes” and the “metabolism according to the literature” value is listed as “not metabolized”.

With `C=C[C@H]1C[N@@]2CC[C@H]1C[C@@H]2[C@@H](O)c1ccnc2ccc(OC)cc12` [quinidine], in series [2], the “metabolites detected” value is “no metabolites” and the “extent of metabolism” value is listed as “not”. In the series on cytochrome P450 isozymes, the “effect on cytochrome P450 isozymes according to the literature” value is “inhibit the action of certain cytochrome P450 isozymes” and the “metabolism according to the literature” value was “not metabolized”.

Source of the values: patent publication US6995022B1, “Screening of xenobiotics and endogenous compounds for metabolic transformation, formation of toxic metabolites, and bioavailability” (Board of Trustees of the University of Illinois, priority 1998, dated 2006).
